Measurements: the supplement of paper PMC8967900

Legend:
Assay in all cases: selective drug sensitivity score (sDSS, relative to normal bone marrow) (sDSS (score)); higher = more potent and effective on the cell line relative to normal bone marrow cells
Conditions in all cases: 72 h
ALL-SIL = system: ALL-SIL
CCRF-CEM = system: CCRF-CEM
CCRF-HSB2 = system: CCRF-HSB2
COG-LL-332h = system: COG-LL-332h
COG-LL-394h = system: COG-LL-394h
COG-LL-402h = system: COG-LL-402h
DND-41 = system: DND-41
HAL-01 = system: HAL-01
JURKAT = system: JURKAT
KASUMI-9 = system: KASUMI-9
LC4-1 = system: LC4-1
MHH-CALL-2 = system: MHH-CALL-2
MOLT-4 = system: MOLT-4
NALL-1 = system: NALL-1
NALM-16 = system: NALM-16
P12-ICHIKAWA = system: P12-ICHIKAWA
RCH-ACV = system: RCH-ACV
RPMI-8402 = system: RPMI-8402
SEM cells = system: SEM cells
TMD5 = system: TMD5
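Note: ALL cell lines in 384-well plates, five doses spanning 10,000-fold, each plate scaled between vehicle and 100 µmol/L benzalkonium chloride controls, sDSS an adapted area-under-curve metric.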

SMILES | selective drug sensitivity score (ALL-SIL) | selective drug sensitivity score (CCRF-CEM) | selective drug sensitivity score (CCRF-HSB2) | selective drug sensitivity score (COG-LL-332h) | selective drug sensitivity score (COG-LL-394h) | selective drug sensitivity score (COG-LL-402h) | selective drug sensitivity score (DND-41) | selective drug sensitivity score (HAL-01) | selective drug sensitivity score (JURKAT) | selective drug sensitivity score (KASUMI-9) | selective drug sensitivity score (LC4-1) | selective drug sensitivity score (MHH-CALL-2) | selective drug sensitivity score (MOLT-4) | selective drug sensitivity score (NALL-1) | selective drug sensitivity score (NALM-16) | selective drug sensitivity score (P12-ICHIKAWA) | selective drug sensitivity score (RCH-ACV) | selective drug sensitivity score (RPMI-8402) | selective drug sensitivity score (SEM cells) | selective drug sensitivity score (TMD5)
O=C(Nc1cccc(NC(=O)c2cccc(O)c2O)c1)c1cccc(O)c1O [MST-312] (top concentration 10000 nM) | 9.6 | 7.1 | 12.8 | 13.1 | 1.1 | 8.6 | 7.2 | 7.6 | 12.5 | 5 | 8.1 | 10.8 | 9.2 | 0.8 | 2.8 | 6.6 | 0.7 | 5.9 | 0.6 | -3
CC(=O)O[C@]1(C(C)=O)CC[C@H]2[C@@H]3C=C(C)C4=CC(=O)CC[C@]4(C)[C@H]3CC[C@@]21C [Megestrol_acetate] (top concentration 10000 nM) | -0.48 | -0.28 | 0.62 | -0.58 | 1.62 | -0.38 | 16.8 | 3.32 | 1.02 | 3.92 | -0.38 | 14.5 | 0.02 | 6.52 | -0.58 | 1.82 | 4.32 | 0.52 | 3.42 | 7.82
CO[C@@H]1[C@H](N(C)C(=O)c2ccccc2)C[C@H]2O[C@]1(C)n1c3ccccc3c3c4c(c5c6ccccc6n2c5c31)C(=O)NC4 [Midostaurin] (top concentration 10000 nM) | 10.8 | 7.06 | 11.7 | 6.26 | -3.84 | 6.86 | 2.46 | 3.06 | -1.34 | 11.7 | 10.6 | 3.86 | 8.66 | 5.36 | -0.64 | 9.76 | 16.2 | 3.66 | 19.3 | 0.66
CCCCCCCCCCCCCCCCOP(=O)([O-])OCC[N+](C)(C)C [Miltefosine] (top concentration 100000 nM) | 3.36 | -0.04 | 7.26 | 0.76 | -1.54 | 0.46 | 2.66 | -1.34 | -1.14 | 0.46 | 7.46 | 6.96 | 0.26 | 5.26 | -0.34 | 6.56 | 3.16 | 1.46 | 4.36 | -1.64
Nc1ccccc1NC(=O)c1ccc(CNc2nccc(-c3cccnc3)n2)cc1 [Mocetinostat] (top concentration 10000 nM) | 9.14 | 5.54 | 3.94 | 7.04 | 2.74 | 8.84 | 7.44 | 2.14 | 6.74 | 9.14 | 9.14 | 7.74 | 5.24 | -3.16 | -0.46 | 6.24 | 9.54 | 6.34 | 9.04 | 1.44
CCNC(=O)C[C@@H]1N=C(c2ccc(Cl)cc2)c2cc(OC)ccc2-n2c(C)nnc21 [Molibresib] (top concentration 10000 nM) | -3.3 | 0.8 | -0.5 | -2.4 | -2.1 | 5.3 | -0.9 | 2.7 | -0.6 | 9.1 | 3.7 | 8.4 | -4.4 | 3.4 | 1.6 | 3 | 7.7 | 1.4 | 7.7 | 5.2
Nc1ncnc2c1c(-c1cccc(OCc3ccccc3)c1)cn2[C@H]1C[C@@H](CN2CCC2)C1 [NVP-AEW541] (top concentration 10000 nM) | 4.58 | -2.42 | -0.62 | -1.52 | 2.48 | -0.72 | -1.12 | 0.58 | -4.72 | -2.72 | -0.92 | 3.28 | -3.22 | -0.42 | -1.42 | -2.72 | 1.18 | -1.32 | 1.38 | -7.62
CN[C@@H](C)C(=O)N[C@H](C(=O)N1CCC[C@H]1c1nc(C(=O)c2ccc(F)cc2)cs1)C1CCCCC1 [NVP-LCL161] (top concentration 25000 nM) | 0.08 | 1.18 | 1.88 | 2.38 | 6.58 | -5.42 | -2.72 | 7.88 | -3.82 | -2.72 | -5.42 | 3.98 | -4.32 | 2.48 | -5.82 | -4.32 | -0.52 | -2.42 | -0.22 | -1.92
